Measured values as given in patent US7294648B2, “Anthranyl derivatives having an anticholecystokinin activity (anti-cck-1), a process for their preparation, and pharmaceutical use thereof” (Rottapharm S.p.A., priority 2002, dated 2007).

Columns and labels:
CCK-1 receptors = biological target: T1, CCK-1 receptors (Rattus norvegicus, UniProt P30551); assay: Inhibition of binding of [125I]-BH-CCK-8 to isolated rat pancreatic acini; conditions: 30 minutes at 37° C.; at least 3 experiments; read-out: IC50, inhibition of binding of [125I]-BH-CCK-8 to isolated rat pancreatic acini
T1 construct: The pancreatic acini obtained from the outbred male rat pancreas of the Sprague Dawley strain; from tissue; host or cells: isolated pancreatic acini of male Sprague Dawley rats
T1 sequence (P30551 1-444): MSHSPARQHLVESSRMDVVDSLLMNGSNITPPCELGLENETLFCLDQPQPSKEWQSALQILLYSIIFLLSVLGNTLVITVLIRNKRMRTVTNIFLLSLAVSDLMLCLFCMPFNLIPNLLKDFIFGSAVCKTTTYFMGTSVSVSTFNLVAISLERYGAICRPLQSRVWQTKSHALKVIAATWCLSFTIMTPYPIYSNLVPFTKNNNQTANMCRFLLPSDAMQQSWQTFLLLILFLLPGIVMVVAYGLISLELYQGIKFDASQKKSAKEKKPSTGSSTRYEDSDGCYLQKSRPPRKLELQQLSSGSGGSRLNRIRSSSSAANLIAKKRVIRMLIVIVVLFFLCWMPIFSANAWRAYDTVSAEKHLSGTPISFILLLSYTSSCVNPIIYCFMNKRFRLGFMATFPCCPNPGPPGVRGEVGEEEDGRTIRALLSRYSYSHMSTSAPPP
Procedure: The pancreatic acini obtained from the outbred male rat pancreas of the Sprague Dawley strain, were incubated in the presence of radioactive tracers and the compound studied for 30 minutes at 37° C. After having discarded the supernatant, the radioactivity associated with the pellet was determined with a liquid scintillator. The specific binding was determined as the difference between the binding in the absence and in the presence of CCK-8, 1.10^−6M. […] The values of IC50 reported were calculated with the […] of a set of at least 3 experiences for each compound studied.

CCK-2 receptor [1] = biological target: T2, CCK-2 receptor (Cavia porcellus, UniProt H0VZC5); assay: Inhibition of the binding of [125I]-BH-CCK-8 to the cortical membrane of guinea pigs; design: species or system guinea pig; conditions: 120 minutes at 25° C.; 25 pM marked binder; at least 3 tests
T2 construct: The incubation of the cerebral membranes together with the radioactive tracers and the compounds under study; from tissue; host or cells: cerebral cortex membranes of male albino Hartley guinea pigs
T2 sequence (H0VZC5 1-426): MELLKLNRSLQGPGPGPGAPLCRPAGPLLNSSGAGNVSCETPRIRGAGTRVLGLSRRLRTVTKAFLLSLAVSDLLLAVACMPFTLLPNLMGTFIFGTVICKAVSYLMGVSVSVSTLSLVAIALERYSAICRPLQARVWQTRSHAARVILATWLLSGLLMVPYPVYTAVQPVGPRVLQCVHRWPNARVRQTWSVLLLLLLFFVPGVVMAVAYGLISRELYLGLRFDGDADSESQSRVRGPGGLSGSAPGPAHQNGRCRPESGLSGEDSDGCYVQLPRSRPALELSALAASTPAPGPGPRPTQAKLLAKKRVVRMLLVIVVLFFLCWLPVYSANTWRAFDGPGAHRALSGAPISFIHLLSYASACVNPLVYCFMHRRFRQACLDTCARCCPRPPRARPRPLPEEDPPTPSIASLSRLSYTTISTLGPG
Procedure: (§1) For this purpose binding tests were performed on cerebral cortex of male albino guinea pigs outbred from the Hartley strain, using as marked binder the [^125I]-BH-CCK-8 sulphate, according to the procedure described by Makovec F. [J. Med. Chem. 35, (1992),28].
(§2) The incubation of the cerebral membranes together with the radioactive tracers and the compounds under study was effected on multi-well plates for 120 minutes at 25° C. Each well contained membrane corresponding to about 0.5 mg of proteins/ml and 25 pM of marked binder in a total volume of 250 micro litres. The specific binding was determined as the difference between the binding in the absence and in the presence of CCK-8, 1.10^−6M. At the end of the incubation a rapid filtration of the plate was performed under vacuum and the radioactivity of the individual filters extracted from the wells was measured with a γ-emission counter. The results obtained are shown in Table 3, in which the tested compounds are indicated, the IC50 calculated with the regression method on a set of at least 3 tests for each compound studied and an index derived from the ratio of the affinity obtained for the two types of receptor CCK-2 and CCK-1.

CCK-2 receptor [2] = assay: as above; design: species or system guinea pig; conditions: IC50 CCK-2 (guinea pig cortex) / IC50 CCK-1 (rat pancreatic acini, Table 2)
Procedure: as §1, §2

Row | Compound | IC50 (CCK-1 receptors) | IC50 (CCK-2 receptor [1]) | index derived from the ratio of the affinity obtained for the two types of receptor CCK-2 and CCK-1 (CCK-2 receptor [2])
1 | O=C(Nc1ccccc1C(=O)NC(Cc1ccccc1)C(=O)O)c1cc2ccccc2[nH]1 (racemic) [Compound 1, 2 (R,S)-{2-[(1H-indol-2-carbonil)amino]-benzoilamino}-3-phnyl-propionic acid] | 240 nM | – | –
2 | O=C(Nc1ccccc1C(=O)N[C@H](Cc1ccccc1)C(=O)O)c1cc2ccccc2[nH]1 [Compound 2, 2 (R)-{2-[(1H-indol-2-carbonyl)amino]-benzoylamino}-3-phenyl-propionic acid] | 110 nM | – | –
3 | O=C(Nc1ccccc1C(=O)N[C@@H](Cc1ccccc1)C(=O)O)c1cc2ccccc2[nH]1 [Compound 3, 2(S)-{2-[(1H-indol-2-carbonyl)amino]-benzoylamino}-3-phenyl-propionic acid] | 7130 nM | – | –
4 | O=C(Nc1ccc(Cl)cc1C(=O)NC(Cc1ccccc1)C(=O)O)c1cc2ccccc2[nH]1 (stereo not shown) [Compound 4] | 410 nM | – | –
5 | Cn1c(C(=O)Nc2ccccc2C(=O)NC(Cc2ccccc2)C(=O)O)cc2ccccc21 (stereo not shown) [Compound 5] | 170 nM | – | –
6 | O=C(Nc1ccccc1C(=O)NC(Cc1ccccc1)C(=O)O)c1cc2cc(F)ccc2[nH]1 (stereo not shown) [Compound 6] | 60 nM | 10600 nM | 176.6
7 | O=C(Nc1ccccc1C(=O)NC(Cc1ccccc1)C(=O)O)c1cc2ccc(F)cc2[nH]1 (stereo not shown) [Compound 7] | 160 nM | – | –
8 | O=C(Nc1ccccc1C(=O)NC(Cc1ccccc1)C(=O)O)c1cc2cccc(F)c2[nH]1 (stereo not shown) [Compound 8] | 90 nM | – | –
9 | O=C(Nc1ccccc1C(=O)NC(Cc1ccccc1)C(=O)O)c1cc2ccccc2o1 (stereo not shown) [Compound 9] | 520 nM | – | –
10 | O=C(Nc1ccccc1C(=O)NC(Cc1ccccc1)C(=O)O)c1cc2ccccc2s1 (stereo not shown) [Compound 10] | 780 nM | – | –
11 | Cc1ccccc1CC(NC(=O)c1ccccc1NC(=O)c1cc2ccccc2[nH]1)C(=O)O (stereo not shown) [Compound 11] | 160 nM | – | –
12 | Cc1ccc(CC(NC(=O)c2ccccc2NC(=O)c2cc3ccccc3[nH]2)C(=O)O)cc1 (stereo not shown) [Compound 12] | 370 nM | – | –
13 | O=C(Nc1ccccc1C(=O)NC(Cc1ccccc1Cl)C(=O)O)c1cc2ccccc2[nH]1 (stereo not shown) [Compound 13] | 270 nM | – | –
14 | O=C(Nc1ccccc1C(=O)NC(Cc1cccc(Cl)c1)C(=O)O)c1cc2ccccc2[nH]1 (stereo not shown) [Compound 14] | 280 nM | – | –
15 | O=C(Nc1ccccc1C(=O)NC(Cc1c(Cl)cccc1Cl)C(=O)O)c1cc2ccccc2[nH]1 (stereo not shown) [Compound 15] | 1410 nM | – | –
16 | COc1cccc(CC(NC(=O)c2ccccc2NC(=O)c2cc3ccccc3[nH]2)C(=O)O)c1 (stereo not shown) [Compound 16] | 240 nM | – | –
17 | O=C(Nc1ccccc1C(=O)NC(Cc1ccccc1[N+](=O)[O-])C(=O)O)c1cc2ccccc2[nH]1 (stereo not shown) [Compound 17] | 160 nM | – | –
18 | O=C(Nc1ccccc1C(=O)NC(Cc1ccc([N+](=O)[O-])cc1)C(=O)O)c1cc2ccccc2[nH]1 (stereo not shown) [Compound 18] | 430 nM | – | –
19 | O=C(Nc1ccccc1C(=O)NC(Cc1ccc(F)cc1)C(=O)O)c1cc2ccccc2[nH]1 (stereo not shown) [Compound 19] | 180 nM | – | –
20 | O=C(Nc1ccccc1C(=O)N[C@@H](CCc1ccccc1)C(=O)O)c1cc2ccccc2[nH]1 [Compound 22] | 190 nM | – | –
21 | O=C(Nc1ccccc1C(=O)NC(CCCc1ccccc1)C(=O)O)c1cc2ccccc2[nH]1 (stereo not shown) [Compound 24] | 90 nM | – | –
22 | Cc1ccccc1CCC(NC(=O)c1ccccc1NC(=O)c1cc2ccccc2n1C)C(=O)O (stereo not shown) [Compound 27] | 30 nM | – | –
23 | O=C(Nc1ccccc1C(=O)NC(CCc1ccccc1[N+](=O)[O-])C(=O)O)c1cc2ccccc2[nH]1 (stereo not shown) [Compound 28] | 120 nM | – | –
